Consider two compounds from patent US4485110A, “β-Lactam compounds, and use” (priority 1980, dated 1984).

What all share (assay type): cell-based
The subject of assay [1] is S. aureus Russell. The assay can be described thus: β-Lactamase inhibitory activity: antibiotic MIC alone or in combination. An excerpt:
(§1) These tables show the MIC values of amoxycillin, cephaloridine, ticarcillin and apalcillin against a number of β-lactamase producing organisms.

Assay [2] deals with S. aureus MB9. The assay is described as above. Particulars: compound alone, 5.0 μg/ml.
From the text: as §1

Assay [3] concerns β-lactamase producing organisms. The assay can be described thus: β-Lactamase inhibitory activity: synergistic properties. Particulars: addition of the compound, Tables 2-5.
From the text: as §1

Assay [4] deals with E. cloacae N 1. The assay can be described thus: Antibacterial activity, broth MIC. Particulars: Enterobacter cloacae, N1, compound alone. An excerpt: (§2) The antibacterial activity of a number of compounds described in the foregoing Examples against a number of organisms is shown in Tables 1 and 10.
Assay [5] deals with P. mirabilis 977. The assay can be described thus: Antibacterial activity, broth MIC. Particulars: Proteus mirabilis, compound alone.
From the text: as §2

Assay [6] deals with S. pneumoniae CN 33. The assay can be described thus: Antibacterial activity, broth MIC. The note with it: Streptococcus pneumoniae, CN33, compound alone.
From the text: as §2

Assay [7] has as its system P. aeruginosa A. The assay can be described thus: Antibacterial activity, broth MIC. Particulars: Pseudomonas aeruginosa, compound alone.
From the text: as §2

In assay [8] the test system is S. pyogenes CN 10. As to the kind of experiment: Antibacterial activity, broth MIC. The note with it: Streptococcus pyogenes, CN10, compound alone.
From the text: as §2

Assay [9] concerns E. coli 0111. The assay can be described thus: Antibacterial activity, broth MIC. The note with it: Escherichia coli, compound alone.
From the text: as §2

Assay [10] has as its system S. sonnei MB 11967. As to the kind of experiment: Antibacterial activity, broth MIC. Particulars: Shigella sonnei, MB11967, compound alone.
From the text: as §2

The test system of assay [11] is K. aerogenes A. The assay can be described thus: Antibacterial activity, broth MIC. Particulars: Klebsiella aerogenes; compound alone, broth; read-out: Broth MIC.
From the text: as §2

Assay [12] has as its system P. morganii I 580. The assay can be described thus: Antibacterial activity, broth MIC. Particulars: Morganella morganii, I580, compound alone.
From the text: as §2

The subject of assay [13] is S. aureus 1517. The assay can be described thus: Antibacterial activity, broth MIC. The note with it: Staphylococcus aureus, compound alone.
From the text: as §2

Assay [14] relates to E. coli JT 39 R^+. The assay can be described thus: Antibacterial activity, broth MIC. The note with it: Escherichia coli; compound alone, broth; read-out: Broth MIC.
From the text: as §2

The test system of assay [15] is S. marcescens US 20. The assay can be described thus: Antibacterial activity, broth MIC. The note with it: Serratia marcescens, US20; compound alone, broth; read-out: Broth MIC.
From the text: as §2

The test system of assay [16] is S. faecalis I. As to the kind of experiment: Antibacterial activity, broth MIC. Particulars: Enterococcus faecalis; compound alone, broth; read-out: Broth MIC.
From the text: as §2

Assay [17] relates to S. aureus Oxford. The assay can be described thus: Antibacterial activity, broth MIC. Particulars: Staphylococcus aureus, compound alone.
From the text: as §2

Assay [18] relates to C. freundii E 8. As to the kind of experiment: Antibacterial activity, broth MIC. The note with it: Citrobacter freundii, E8; compound alone, broth; read-out: Broth MIC.
From the text: as §2

For assay [19], the system named is P. rettgeri WM 16. As to the kind of experiment: Antibacterial activity, broth MIC. Particulars: Providencia rettgeri, WM16, compound alone.
From the text: as §2

The subject of assay [20] is S. aureus Russell. As to the kind of experiment: Antibacterial activity, broth MIC. Particulars: Staphylococcus aureus, compound alone.
From the text: as §2

Assay [21] deals with S. typhimurium CT 10. As to the kind of experiment: Antibacterial activity, broth MIC. Particulars: Salmonella enterica, compound alone.
From the text: as §2

Assay [22] has as its system P. vulgaris WO 91. As to the kind of experiment: Antibacterial activity, broth MIC. The note with it: Proteus vulgaris, WO91, compound alone.
From the text: as §2

Assay [23] concerns P. mirabilis 889. As to the kind of experiment: β-Lactamase inhibitory activity: antibiotic MIC alone or in combination. Particulars: Proteus mirabilis, 889, amoxycillin alone; read-out: Amoxycillin MIC.
From the text: as §1

Assay [24] relates to K. aerogenes I112. The assay is described as above.
From the text: as §1

Assay [25] deals with E. coli JT410 C+. The assay is described as above. Particulars: amoxycillin alone.
From the text: as §1

Assay [26] deals with P. mirabilis 977. Described as above. Particulars: Proteus mirabilis, 977, amoxycillin alone; read-out: Amoxycillin MIC.
From the text: as §1

For assay [27], the system named is P. aeruginosa A. The assay is described as above. Particulars: Pseudomonas aeruginosa; amoxycillin alone; read-out: Amoxycillin MIC.
From the text: as §1

Assay [28] relates to E. coli JT39R+. Described as above.
From the text: as §1

For assay [29], the system named is E. coli 0111. The assay is described as above.
From the text: as §1

Assay [30] deals with K. aerogenes Ba95R+. Described as above. Particulars: Klebsiella aerogenes, read-out: Amoxycillin MIC.
From the text: as §1

The subject of assay [31] is P. vulgaris WO91. Described as above.
From the text: as §1

Assay [32] concerns P. aeruginosa Dalgleish. The description is as above. Particulars: Pseudomonas aeruginosa; amoxycillin alone; read-out: Amoxycillin MIC.
From the text: as §1

The subject of assay [33] is E. coli JT20R+. The description is as above. Particulars: Escherichia coli, read-out: Amoxycillin MIC.
From the text: as §1

Assay [34] deals with C. freundii B10R+. The assay is described as above. The note with it: Citrobacter freundii, read-out: Amoxycillin MIC.
From the text: as §1

The subject of assay [35] is P. rettgeri WM16. Described as above.
From the text: as §1

Assay [36] deals with C. freundii E8. The description is as above.
From the text: as §1

For assay [37], the system named is P. morganii 1580. Described as above.
From the text: as §1

Assay [38] relates to E. cloacae T 153. The description is as above. The note with it: Enterobacter cloacae, T153; amoxycillin alone.
The subject of assay [39] is E. cloacae N1. The assay is described as above. Particulars: Enterobacter cloacae, N1, amoxycillin alone; read-out: Amoxycillin MIC.

“And” between values parts separate entries of the source, which are not always exact repeats. Equal values may be shown once.

Turning to `C/C=C1/C(=O)N2C(C(=O)O)=C(SCC)SC12` (racemic) [Compound 27, (5RS)-Sodium(Z)-6-Ethylidene-2-ethylthiopenem-3-carboxylate], the “Inhibition by compound alone (footnote)” value is “inhibitory” in [1] (compound alone, 5.0 μg/ml) and “inhibitory” in assay [2]. Besides, the “Effect on MIC of amoxycillin, cephaloridine, ticarcillin and apalcillin” value in assay [3] is “marked decrease in the MIC”. Besides, the minimum inhibitory concentration (MIC) (as a rule, the least concentration at which growth counts as inhibited) in assay [4] was 31 mg/L; in [5] it was 31 mg/L; in assay [6], 2 mg/L; in assay [7], above 500 mg/L; in [8] it was 4 mg/L; in [9], 31 mg/L. In addition, the minimal inhibitory concentration (MIC) turned out to be 31 mg/L in assay [10]; 16 mg/L in assay [11]; 31 mg/L in [12]; 16 mg/L in assay [13]; 16 mg/L in assay [14]; 62 mg/L in [15]. The minimal inhibitory concentration (MIC) worked out at 250 mg/L in [16]; 2 mg/L in assay [17]; 31 mg/L in [18]; 62 mg/L in assay [19]; 4 mg/L in assay [20]; 16 mg/L in assay [21]. Besides, the minimal inhibitory concentration (MIC) in assay [22] worked out at 31 mg/L.

For `CC1(C)S[C@@H]2[C@H](NC(=O)[C@H](N)c3ccc(O)cc3)C(=O)N2[C@H]1C(=O)O` [Amoxycillin], the MIC is above 1000 mg/L in [23]; 500 mg/L in [24] (Klebsiella aerogenes, I112, read-out: Amoxycillin MIC, amoxycillin alone); 250 mg/L in assay [25] (Escherichia coli, read-out: Amoxycillin MIC); 2.5 mg/L in [26]; above 1000 mg/L in assay [27]; above 1000 mg/L in [28] (Escherichia coli, read-out: Amoxycillin MIC, amoxycillin alone). The MIC in assay [29] (Escherichia coli, 0111, amoxycillin alone, read-out: Amoxycillin MIC) is 10 mg/L; in assay [30], above 1000 mg/L; in [31] (Proteus vulgaris, WO91, amoxycillin alone, read-out: Amoxycillin MIC), above 1000 mg/L; in [32] it was above 1000 mg/L; in assay [1] (Staphylococcus aureus, amoxycillin alone, read-out: Amoxycillin MIC) it was 100 mg/L; in assay [33] it was above 1000 mg/L. The MIC in [34] is above 1000 mg/L; in [35] (Providencia rettgeri, WM16, amoxycillin alone, read-out: Amoxycillin MIC), 1000 mg/L; in assay [36] (Citrobacter freundii, E8, amoxycillin alone, read-out: Amoxycillin MIC) it was 250 mg/L; in assay [37] (Morganella morganii, 1580, amoxycillin alone, read-out: Amoxycillin MIC) it was 1000 mg/L; in assay [38], 1000 mg/L; in [39], 500 mg/L. The “Amoxycillin MIC” value in assay [24] (amoxycillin alone) is 250 mg/L; in assay [25] it was 500 mg/L; in assay [28] (amoxycillin alone) it was 1000 mg/L; in assay [29] (amoxycillin alone) it was 5 mg/L and 5.0 mg/L; in assay [31] (amoxycillin alone), 1000 mg/L; in [35] (amoxycillin alone), 500 mg/L. The entries for the “Amoxycillin MIC” value in [36] (amoxycillin alone) and in [37] (amoxycillin alone) were 500 mg/L and above 1000 mg/L, respectively.
